Results on one compound are retold here after US6908905B2, “N-substituted pyrazole-O-glycoside derivatives and therapeutic agent for diabetes containing the same” (Ajinomoto Co., Inc., priority 2001, dated 2005).

The structures appear in SMILES notation.

One test deals with male Wistar rats. The test can be described thus: Evaluation of effect on urinary excretion of sugar in rats (Example 8). In kind it is in vivo. Particulars: rat, oral, 24 hours. As for the experimental part: Five-week-old male Wistar rats (purchased from Charles River Japan, Inc.) were housed in metabolic cages for about one week prior to the experiment. A test compound was suspended in olive oil, so that solutions of the compound with concentrations of […] were prepared to have a dose of 5 ml/kg body weight of the rat. After the rats were not fed for 4 hours, the test compound was orally administered to the rats at a dosage of 10, 30 and 100 mg/kg at 11 a.m. Urine of the rat was collected for a given period of time from the time immediately after the administration to 24 hours after the administration, and the urine volume was measured. Subsequently, the glucose concentration in urine was determined by the glucose oxidase method and the daily amount of glucose excreted in urine per individual was calculated.
As the positive control compound, 3-(benzo[b]furan-5-yl)-2′,6′-dihydroxy-4′-methylpropiophenone 2′-O-(6-O-methoxycarbonyl-β-D-glucopyranoside) was used.

In the next test the test system is rat. Particulars: oral administration, increase of sugar excreted in urine, decrease of blood sugar; cited from earlier work.

For `COC(=O)OC[C@H]1O[C@@H](Oc2cc(C)cc(O)c2C(=O)CCc2ccc3occc3c2)[C@H](O)[C@@H](O)[C@@H]1O` [Positive Control Compound, 3-(benzo[b]furan-5-yl)-2′,6′-dihydroxy-4′-methylpropiophenone 2′-O-(6-O-methoxycarbonyl-β-D-glucopyranoside)], the “The amount of glucose excreted in urine” value in the test with male Wistar rats (10 mg/kg) amounted to 2 mg; with male Wistar rats (30 mg/kg), 78 mg; with male Wistar rats (100 mg/kg) it was 274 mg. In the test on rat, the “dose needed to exhibit the efficacy” value is given as 100 mg/kg.
